Values after ≈ are worked out from the molar mass of the structure shown.

For one assay, the system named is skin cancer cells. Details: method as in PMID 30858059, PMID 28292936. The following applies: cited from earlier work.
Assay [1] concerns A549 lung cancer cell line. Briefly: MTT cell proliferation assay, A549. The following applies: lung cancer cells; for IC50: Homo sapiens, A549, 48 h treatment. It is filed as cell-based, human. The source says:
(§1) All materials and reagents for cell culture were purchased from Sigma Aldrich (Saint Louis, MS, USA). For the assay, two human cancer cell lines and two cell lines, one human and one mouse as controls, were used. The human breast cancer cell line (MDA-MB-231 ATCC®) and lung cancer cell line (A549 ATCC®) were maintained in Dulbecco’s modified Eagle medium (DMEM) supplemented with 10% of fetal bovine serum and 1% of penicillin. The primary human dermal fibroblasts from adult skin (HDFa ATCC®) and the cell line from mouse adipose tissue (L929 ATCC®) were maintained in Roswell Park Memorial Institute medium (RPMI) supplemented with 10% of fetal bovine serum and 1% of penicillin, all cells in incubator with 5% CO2 at 37 °C [25].
(§2) Antiproliferative studies were carried out using the modified MTT assay based on a previously published method. In this case, 100 μL of cell suspension from the tumor lines was seeded in 96-well plates with a cellular density of 20,000 cells/well and incubated with 5% CO2 at 37 °C to allow cell adhesion. After 48 h, the supernatant was discarded and the cells were treated with different concentrations (5, 10, 25, 50, and 100 μg/mL) of the natural compounds 1 and 2 and the semisynthetic derivatives 3–5 dissolved in an unsupplemented medium. The plate was incubated for 48 h with 5% CO2 at 37 °C. Subsequently, 100 μL of an MTT solution at 0.5 mg/mL was added to each well and placed back in the incubator for 2 h. The supernatant was removed and 100 μL of DMSO was added to incubate for 15 min. Finally, absorbance (OD) at 595 nm was measured on an iMark ™ Microplate reader (Bio-Rad, Hercules, CA, USA).
(§3) The cytotoxic activity was quantified by calculating the mean inhibitory concentration (IC50), normalizing the absorbance data and converting them into percentages of inhibition. With a nonlinear 4PL regression, the IC50 was found, as developed by Sebaugh, using the PrimsGraph Pad® program (GraphPad Software Inc., San Diego, CA, USA).

The test system of assay [2] is MDA-MB-231 breast cancer cell line. Briefly: MTT cell proliferation assay, MDA-MB-231. It is filed as cell-based. The settings on record: Homo sapiens, 48 h treatment, breast cancer cells.
Description: as §1, §2, §3

Assay [3] relates to HDFa dermal fibroblast cell line. The experiment in a line: MTT cell proliferation assay, HDFa. It is filed as cell-based. The following applies: 48 h treatment, healthy human dermal fibroblasts.
Description: as §1, §2, §3

The subject of assay [4] is L929 fibroblast cell line. The experiment in a line: MTT cell proliferation assay, L929. Format: cell-based. The following applies: 48 h treatment, healthy mouse fibroblasts.
Description: as §1, §2, §3

The next assay concerns the target T1, p38α-kinase (Homo sapiens, UniProt Q16539).
T1 construct: purchased Promega Corporation
The experiment in a line: p38α Kinase Enzyme System, ADP-Glo luminescence. Format: biochemical. The source says:
Possibly due to a higher concentration of compounds that generate interaction with a site of the enzymes different from the active site, which leads to a lower inhibition, as explained by Abdel-Magid, where it is stated that most of the drugs are designed to join the primary active sites of the enzymes, known as orthostatic sites. However, these can also have secondary sites or allosteric, in which, at the time of the inhibitors join them, a secondary effect is generated causing an increase in enzymatic activity. Therefore, it was not possible to obtain an IC50 value and the results were analyzed by the area under the curve (AUC). This performs the integral of the function of the logarithm of the concentration vs. luminescence for each of the compounds, and in this way to be able to compare the activity between them.
(§4) For the assay of the enzymatic activity, the p38α Kinase Enzyme System (Promega Corporation, Madison, WI, USA) and Src Kinase Enzyme System (Promega Corporation, Madison, WI, USA) kits were used. In this case 25 μL of reaction were added to each well (in the final concentrations shown in Table 4), where 10 μL were from substrate solution (0.2 mg/mL substrate, ATP and 1 × buffer kinase (Promega Corporation)), 10 μL of kinase solution (kinase (Promega Corporation), 1 × buffer kinase (Promega Corporation) and nuclease-free water) and 5 μL of the compounds initially prepared at 1 mM in DMSO and performing serial dilutions in Buffer Kinase (Promega Corporation) from 10 μM to 0.625 μM according to protocol for the kits (Promega Corporation, 2018). The plates were left at room temperature for 1 h, then 25 μL of ADP-Glo ™ Reagent (Promega Corporation) were added, these were placed at room temperature again for 40 min. Finally, 50 μL of the kinase detection reagent will be added and left at room temperature for 45 min [28]. The measurement was made by means of luminescence in an integration time of 0.5 to 1 s in the GENios Plus microplate reader (Grödig/Salzburg, Austria).

A further assay has as its target T2, Src-kinase (Homo sapiens, UniProt P12931).
T2 construct: purchased Promega Corporation
The experiment in a line: Src Kinase Enzyme System, ADP-Glo luminescence. It is filed as biochemical. The settings on record: for Src-kinase area under the curve (AUC): log concentration vs. luminescence, 10 to 0.625 μM, smaller area = more inhibition.
Description: On the other hand, there are several enzymes that may be involved in several types of cancer, such as non-receptor tyrosine kinase (c-Src) which belongs to the family of kinases and is expressed in all cell types, but its activity is related to advanced malignancies and an unfavorable prognoses of human cancers, so it is considered a molecular target for studies of potential inhibitors. As with the previous enzyme, similar behavior was obtained, so the area under the curve of each of the compounds was also calculated in order to know which of them generate greater inhibition.
as §4

The target in the next assay is T3, topoisomerase IIα (Homo sapiens, UniProt P11388).
T3 construct: purchased TopoGen
T3 sequence (P11388 whole entry): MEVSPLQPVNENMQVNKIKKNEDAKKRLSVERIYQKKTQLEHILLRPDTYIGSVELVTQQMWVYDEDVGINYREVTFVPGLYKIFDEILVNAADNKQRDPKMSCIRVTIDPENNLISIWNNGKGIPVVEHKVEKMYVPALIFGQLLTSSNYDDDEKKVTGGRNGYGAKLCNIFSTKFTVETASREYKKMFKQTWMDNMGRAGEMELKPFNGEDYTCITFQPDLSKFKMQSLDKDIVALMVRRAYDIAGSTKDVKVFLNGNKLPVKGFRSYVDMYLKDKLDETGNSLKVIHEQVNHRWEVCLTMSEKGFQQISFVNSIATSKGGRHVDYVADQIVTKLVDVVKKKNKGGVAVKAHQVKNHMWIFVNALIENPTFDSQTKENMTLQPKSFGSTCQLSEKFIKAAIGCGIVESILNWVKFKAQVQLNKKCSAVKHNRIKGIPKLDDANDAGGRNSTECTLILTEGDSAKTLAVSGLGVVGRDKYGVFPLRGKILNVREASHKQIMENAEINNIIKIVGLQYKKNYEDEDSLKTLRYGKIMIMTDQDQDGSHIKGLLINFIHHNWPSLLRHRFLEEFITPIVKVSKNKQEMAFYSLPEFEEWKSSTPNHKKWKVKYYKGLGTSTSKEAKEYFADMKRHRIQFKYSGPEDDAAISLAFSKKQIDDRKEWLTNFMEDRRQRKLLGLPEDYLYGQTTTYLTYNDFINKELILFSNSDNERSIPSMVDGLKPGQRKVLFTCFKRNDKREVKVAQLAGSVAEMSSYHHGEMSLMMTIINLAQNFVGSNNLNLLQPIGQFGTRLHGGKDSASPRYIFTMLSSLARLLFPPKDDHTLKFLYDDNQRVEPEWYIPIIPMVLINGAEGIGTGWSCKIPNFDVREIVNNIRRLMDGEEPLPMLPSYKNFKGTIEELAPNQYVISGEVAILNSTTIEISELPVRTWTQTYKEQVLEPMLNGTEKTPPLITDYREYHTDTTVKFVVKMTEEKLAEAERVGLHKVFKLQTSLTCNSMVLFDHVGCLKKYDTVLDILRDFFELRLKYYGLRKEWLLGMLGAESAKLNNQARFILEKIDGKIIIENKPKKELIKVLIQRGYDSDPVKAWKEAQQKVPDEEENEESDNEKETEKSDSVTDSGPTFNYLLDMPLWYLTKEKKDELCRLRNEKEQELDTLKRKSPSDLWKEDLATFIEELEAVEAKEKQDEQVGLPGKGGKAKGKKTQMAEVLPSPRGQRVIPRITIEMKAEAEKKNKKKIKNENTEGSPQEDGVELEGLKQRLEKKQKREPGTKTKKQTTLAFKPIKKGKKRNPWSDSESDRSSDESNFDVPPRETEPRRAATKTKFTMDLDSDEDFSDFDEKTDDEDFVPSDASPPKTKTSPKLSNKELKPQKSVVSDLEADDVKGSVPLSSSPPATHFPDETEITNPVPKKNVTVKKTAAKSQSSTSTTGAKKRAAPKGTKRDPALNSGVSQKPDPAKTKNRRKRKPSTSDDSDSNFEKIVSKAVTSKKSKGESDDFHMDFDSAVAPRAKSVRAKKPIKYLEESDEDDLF
Briefly: Topoisomerase IIα drug detection kit, kDNA agarose gel. The following applies: normalized with 1% DMSO. Format: biochemical. The procedure: The Topoisomerase IIα drug detection kit (TopoGen, Buena Vista, VA, USA) was used. Reactions were made with 4 μL of reaction buffer (50 mM Tris-HCl, 5 mM ATP, 150 mM NaCl, 30 μg/mL bovine serum albumin, 0.5 mM dithiothreitol, 10 mM MgCl2), 1 μL of the enzyme topoisomerase IIα ([…], 2 units), 1 μL of the kDNA substrate (approximately 200 ng) and 1 μL of the compounds with activity at 10 μM, so that the final volume was 20 μL completing with nuclease-free water. These reactions were incubated at 37 °C for 30 min, and the reaction was terminated with 4 μL of stop buffer.

The test system of assay [5] is lung cancer cells line (A549). Details: method as in PMID 28635645. The following applies: cited from earlier work.

T2 sequence (P12931 whole entry): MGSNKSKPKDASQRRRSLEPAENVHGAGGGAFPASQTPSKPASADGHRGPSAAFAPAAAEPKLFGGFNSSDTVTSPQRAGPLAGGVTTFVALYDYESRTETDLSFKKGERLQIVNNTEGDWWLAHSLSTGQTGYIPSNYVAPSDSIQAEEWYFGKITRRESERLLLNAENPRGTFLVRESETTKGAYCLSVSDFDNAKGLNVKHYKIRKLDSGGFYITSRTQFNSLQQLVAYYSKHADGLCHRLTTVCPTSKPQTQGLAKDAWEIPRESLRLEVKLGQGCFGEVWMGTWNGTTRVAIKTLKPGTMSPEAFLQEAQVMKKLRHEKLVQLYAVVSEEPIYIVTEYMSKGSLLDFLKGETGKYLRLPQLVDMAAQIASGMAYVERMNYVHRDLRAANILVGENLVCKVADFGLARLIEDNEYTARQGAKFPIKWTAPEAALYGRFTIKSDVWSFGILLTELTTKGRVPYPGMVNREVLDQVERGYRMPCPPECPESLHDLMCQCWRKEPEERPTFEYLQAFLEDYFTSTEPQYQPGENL
T1 sequence (Q16539 whole entry): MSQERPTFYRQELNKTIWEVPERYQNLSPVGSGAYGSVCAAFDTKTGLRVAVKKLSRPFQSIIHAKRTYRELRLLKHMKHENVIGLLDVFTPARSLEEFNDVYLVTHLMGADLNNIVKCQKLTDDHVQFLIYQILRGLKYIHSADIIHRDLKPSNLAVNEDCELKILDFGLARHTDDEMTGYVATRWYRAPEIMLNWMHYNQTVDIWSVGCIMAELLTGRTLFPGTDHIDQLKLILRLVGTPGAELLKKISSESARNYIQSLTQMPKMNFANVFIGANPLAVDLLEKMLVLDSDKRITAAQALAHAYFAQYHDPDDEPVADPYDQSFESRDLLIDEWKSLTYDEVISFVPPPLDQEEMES

In the case of `CCCCC/C=C/C=C1/C(=O)C=CC1C/C=C\CCCC(=O)NCCO` (stereo not shown) [15-deoxy-Δ^12,14-PGJ2-EA], the IC50 in the assay with skin cancer cells was 20 µM.

For `CCCCCC(/C=C/[C@H]1C=CC(=O)[C@@H]1C/C=C\CCCC(=O)OC)OC(C)=O` (stereo partly shown) [Compound 1, (5Z,13E)-15-acetyl-oxy-9-oxo-prosta-5,10,13-trien-1-oic acid methyl ester], the “IC50 A549” value in assay [1] (48 h treatment) is recorded as “ineffective”. In addition, the IC50 in assay [1] was above 100 µg/mL; in assay [2] it was 27.5 µg/mL (≈ 70.5 µM); in assay [3] it was 28.3 µg/mL (≈ 72.4 µM); in assay [4], 71.7 µg/mL (≈ 184 µM). Moreover, the values for the inhibition at 2.5 µM on p38α-kinase and against Src-kinase were 42% and below 40%, respectively. At Src-kinase, the “Src-kinase area under the curve (AUC)” value is on record as “above 1500”. Moreover, the inhibition at 10 µM on topoisomerase IIα came to 45%.

As to `CCCCCC(O)/C=C/[C@H]1C=CC(=O)[C@@H]1C/C=C\CCCC(=O)O` (stereo partly shown) [Compound 2, (5Z,13E) -15-hydroxy-9-oxoprosta 5,10,13 trien-1-oic acid], the IC50 in assay [1] is 25.2 µg/mL (≈ 75.3 µM); in assay [2], 16.5 µg/mL (≈ 49.2 µM); in [3] it was 17.9 µg/mL (≈ 53.4 µM); in [4], 40.4 µg/mL (≈ 121 µM). In addition, the inhibition at 2.5 µM came out at 49% against p38α-kinase and 59% at Src-kinase. Moreover, on Src-kinase, the “Src-kinase area under the curve (AUC)” value is listed as 921. For the same molecule, at topoisomerase IIα, the inhibition at 10 µM worked out at 64%.

Consider `CCCCCC(/C=C/[C@H]1CC[C@@H](O)[C@@H]1C/C=C\CCCC(=O)OC)OC(C)=O` (stereo partly drawn) [Compound 3, (5Z,9β,13E)-15-acetyloxy-9-hydroxy-prosta-5,13-dien-1-oic acid methyl ester], for which the IC50 in [1], in assay [2], in assay [3] and in [4] was above 100 µg/mL each time. The figures for the inhibition at 2.5 µM on p38α-kinase and at Src-kinase were 37% and below 40%, respectively. In addition, on topoisomerase IIα, the inhibition at 10 µM worked out at 43%.

As to `CCCCCC(/C=C/[C@H]1CC[C@H](O)[C@@H]1C/C=C\CCCC(=O)OC)OC(C)=O` (stereo partly drawn) [Compound 4, (5Z,9α,13E)-15-acetyloxy-9-hydroxy-prosta-5,13-dien-1-oic acid methyl ester], the IC50 in [1] is above 100 µg/mL; in assay [2] it was above 100 µg/mL; in assay [3], 50.7 µg/mL (≈ 128 µM); in [4], 54.3 µg/mL (≈ 138 µM). The inhibition at 2.5 µM on p38α-kinase was 37%; on Src-kinase it was below 40%. On topoisomerase IIα, this molecule had an inhibition at 10 µM of 26%.

As to `CCCCC[C@@H](O)/C=C/[C@H]1CCC(O)[C@@H]1C/C=C\CCCCO` (stereo partly shown) [Compound 5, (5Z,13E)-1,9,15-triol-prosta-5,13-diene], the IC50 in [1], in assay [2], in [3] and in assay [4] was above 100 µg/mL each time. For the same molecule, the figures for the inhibition at 2.5 µM on p38α-kinase and against Src-kinase were 39% and 46%, respectively. Moreover, the p38α-kinase % inhibition on p38α-kinase (at 2.5 μM) is listed as 36%. At topoisomerase IIα, this molecule had an inhibition at 10 µM of 24%.

Turning to `CCCCC[C@H](O)/C=C/[C@H]1C(=O)C[C@H](O)[C@@H]1C/C=C\CCCC(=O)NCCO` [PGD2-EA], the IC50 with skin cancer cells was 18 µM.

With `COc1cccc2c1C(=O)c1c(O)c3c(c(O)c1C2=O)C[C@@](O)(C(=O)CO)C[C@@H]3O[C@H]1C[C@H](N)[C@H](O)[C@H](C)O1` [doxorubicin, reference compound], at 10 µM the inhibition at topoisomerase IIα was 88%.

Turning to sardysterol, the IC50 in [5] is 27.3 µM.

(Values after paper PMC7143862, “Prostaglandins Isolated from the Octocoral Plexaura homomalla: In Silico and In Vitro Studies Against Different Enzymes of Cancer” (Marine Drugs, 2020).)
